Reference: patent US3985875A, “ω-(N-acylamino)alkylphosphoryl ethanolamines, pharmaceutical compositions containing them, and their uses” (Dainippon Pharmaceutical Co., Ltd., priority 1974, dated 1976)
Like-named read-outs stand apart in the source and are kept apart here.

How the values were obtained:
[1] = tested on: renal hypertensive rats; assay: Antihypertensive activity in renal hypertensive rats, i.m. (Table 3); type: in vivo, rat; conditions: 30 mg/kg/day i.m.
Method: (§1) An aqueous solution or suspension in peanut oil of each test compound as administered intramuscularly (i.m.) or orally (p.o.) at a dose of 30 to 100 mg/kg (body weight)/day once every morning over the period of 6 to 7 days.
(§2) The blood pressure of each rat was measured daily before and 5 hours after each administration. Furthermore, the blood pressure was measured every morning after drug withdrawal over a period of 3 to 6 days.
(§3) Test compounds (1)-(4) decreased the blood pressure of renal hypertensive rats with a dose of 30 mg/kg/day i.m.. […] The antihypertensive rats with a dose of 100 mg/kg/day p.o..

[2] = target: T1, High renin plasma (Canis lupus familiaris, UniProt Q6DYE7); assay: Renin-inhibitory activity, Method II (high renin plasma of dog, inhibition of Angiotensin I formation); type: biochemical; conditions: Table 2; 37°C, 4 hours, 1.25 mg/ml; read-out: Rate of inhibiting the formation of Angiotensin I determined by Method II
T1 construct: High renin plasma prepared by constriction of the renal artery of a dog anesthetized with Nembutal; from tissue; host or cells: plasma of a dog with constricted renal artery
T1 sequence (Q6DYE7 66-403): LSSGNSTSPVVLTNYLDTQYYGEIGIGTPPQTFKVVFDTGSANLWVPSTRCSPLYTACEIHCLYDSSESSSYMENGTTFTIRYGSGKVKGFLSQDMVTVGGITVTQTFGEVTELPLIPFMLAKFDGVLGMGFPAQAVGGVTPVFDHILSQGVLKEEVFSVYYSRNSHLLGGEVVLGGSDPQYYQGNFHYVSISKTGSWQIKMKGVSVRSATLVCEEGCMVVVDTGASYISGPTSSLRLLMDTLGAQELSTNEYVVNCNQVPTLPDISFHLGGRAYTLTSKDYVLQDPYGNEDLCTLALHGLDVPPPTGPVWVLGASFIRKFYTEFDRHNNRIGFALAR
Method: High renin plasma prepared by constriction of the renal artery of a dog anesthetized with Nembutal (the plasma which when incubated at 37°40 C. for 6 hours, yields 30 to […]. of Angiotensin I) was incubated at 37° C. for 2 to 6 hours in the same way as in Method I, and also under the same conditions in the presence of 1.25 mg/ml. of each of the test compounds.
(§4) The results are shown in Table 1 (the rate of inhibiting the formation of Angiotensin I, as determined by Method I, when the plasma was incubated at 37° C. for 2, 4 and 6 hours respectively), and Table 2 (the rate of inhibiting the formation of Angiotensin I when the plasma was incubated at 37° C. for 4 hours, with the compound concentration of 1.25 mg/ml.)

[3] = target: T2, Renin (Homo sapiens, UniProt P00797); assay: Renin-inhibitory activity, Method I (inhibition of Angiotensin I formation, RIA); type: biochemical; conditions: for inhibition at 1250 µg/mL: 1.25 mg/ml; for inhibition at 313 µg/mL: 0.313 mg/ml; for inhibition at 625 µg/mL: 0.625 mg/ml; for inhibition at 2500 µg/mL: 2.5 mg/ml
T2 sequence (P00797 67-406): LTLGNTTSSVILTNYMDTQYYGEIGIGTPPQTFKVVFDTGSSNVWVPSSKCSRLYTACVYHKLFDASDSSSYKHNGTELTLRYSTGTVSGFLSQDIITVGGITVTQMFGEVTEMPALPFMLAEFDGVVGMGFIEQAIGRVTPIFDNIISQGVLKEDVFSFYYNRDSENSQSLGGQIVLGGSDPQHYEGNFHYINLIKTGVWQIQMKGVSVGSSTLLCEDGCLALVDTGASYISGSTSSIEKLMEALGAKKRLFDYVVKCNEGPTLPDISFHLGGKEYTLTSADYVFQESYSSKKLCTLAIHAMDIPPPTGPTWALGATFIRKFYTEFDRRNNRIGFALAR
Method: Renin (see E. Haas et al. Circulation Research, Vol. 19, p. 739, 1966 and Vol. 31, p. 65, 1972) was incubated in Angiotensinogen at 37° C. for 2 to 6 hours. Similarly, renin was incubated under the same conditions in the presence of 0.313 to 2.5 mg/ml. of each of the test compounds listed above. The amount of Angiotensin I was measured by radioimmunoassay (RIA) (E. Haber et al., J. Clin. Endocrinol., Vol. 29, p. 1349, 1969), and made the renin activity.
as §4

[4] = tested on: renal hypertensive rats; assay: Antihypertensive activity in rats, p.o. (Table 4); type: in vivo, rat; conditions: 100 mg/kg/day p.o.
Method: as §1, §2, §3

[5] = tested on: plasma cholesterol level; assay: Cholesterol-lowering activity in rats (modified Greenberg method); type: in vivo, rat; conditions: 100 mg/Kg oral once a day, 5 consecutive days
Method: The effect of each of the test compounds on the plasma cholesterol level was examined in rats according to a slightly modified form of the C. M. Greenberg et al. method described in Am. J. Physiol., Vol. 202 (1961), p. 732. Rats were treated once a day with a 100 mg/Kg oral dose for 5 consecutive days instead of 7 days.

[6] = 1st day, 0 h (immediately before administration)
[7] = 1st day, 5 hours after administration
[8] = 2nd day, 0 h (immediately before administration)
[9] = 2nd day, 5 hours after administration
[10] = 3rd day, 0 h (immediately before administration)
[11] = 3rd day, 5 hours after administration
[12] = 4th day, 0 h (immediately before administration)
[13] = 4th day, 5 hours after administration
[14] = 5th day, 0 h (immediately before administration)
[15] = 5th day, 5 hours after administration
[16] = 6th day, 0 h (immediately before administration)
[17] = 6th day, 5 hours after administration
[18] = Table 2, 37°C, 4 hours, read-out: Rate of inhibiting the formation of Angiotensin I determined by Method I
[19] = incubating time 2 hours, read-out: Rate of inhibiting the formation of Angiotensin I
[20] = incubating time 4 hours, read-out: Rate of inhibiting the formation of Angiotensin I
[21] = incubating time 6 hours, read-out: Rate of inhibiting the formation of Angiotensin I

## CCCCCC=CCC=CCCCCCCCC(=O)NCCCOP(=O)(O)OCCN [(4), 3-(Octadeca-9,12-dienoylamino)propylphosphoryl ethanolamine]
[1]; 1st day after withdrawal
  Changes of blood pressure after drug withdrawal: -29 mmHg
[1]; [6]
  Changes of blood pressure: 0 mmHg
[1]; [7]
  Changes of blood pressure: -15 mmHg
[1]; 2nd day after withdrawal
  Changes of blood pressure after drug withdrawal: -12 mmHg
[1]; [8]
  Changes of blood pressure: -7 mmHg
[1]; [9]
  Changes of blood pressure: -20 mmHg
[1]; 3rd day after withdrawal
  Changes of blood pressure after drug withdrawal: -2 mmHg
[1]; [10]
  Changes of blood pressure: -12 mmHg
[1]; [11]
  Changes of blood pressure: -27 mmHg
[1]; [12]
  Changes of blood pressure: -22 mmHg
[1]; [13]
  Changes of blood pressure: -37 mmHg
[1]; [14]
  Changes of blood pressure: -28 mmHg
[1]; [15]
  Changes of blood pressure: -41 mmHg
[1]; [16]
  Changes of blood pressure: -27 mmHg
[1]; [17]
  Changes of blood pressure: -41 mmHg
[2]
  inhibition at 1250 µg/mL: 24%
[3]; [18]
  inhibition at 1250 µg/mL: 29%

## CCC=CCC=CCC=CCCCCCCCC(=O)NCCCOP(=O)(O)OCCN [Compound (2), 3-(Octadeca-9,12,15-trienoylamino)propylphosphoryl ethanolamine]
[1]; 1st day after withdrawal
  Changes of blood pressure after drug withdrawal: -34 mmHg
[1]; [6]
  Changes of blood pressure: 0 mmHg
[1]; [7]
  Changes of blood pressure: -17 mmHg
[1]; 2nd day after withdrawal
  Changes of blood pressure after drug withdrawal: -21 mmHg
[1]; [8]
  Changes of blood pressure: -1 mmHg
[1]; [9]
  Changes of blood pressure: -26 mmHg
[1]; 3rd day after withdrawal
  Changes of blood pressure after drug withdrawal: -7 mmHg
[1]; [10]
  Changes of blood pressure: -20 mmHg
[1]; [11]
  Changes of blood pressure: -31 mmHg
[1]; [12]
  Changes of blood pressure: -22 mmHg
[1]; [13]
  Changes of blood pressure: -34 mmHg
[1]; [14]
  Changes of blood pressure: -23 mmHg
[1]; [15]
  Changes of blood pressure: -39 mmHg
[1]; [16]
  Changes of blood pressure: -29 mmHg
[1]; [17]
  Changes of blood pressure: -44 mmHg
[2]
  inhibition at 1250 µg/mL: 59%
[3]; [19]
  inhibition at 313 µg/mL: 25%
  inhibition at 625 µg/mL: 50%
  inhibition at 1250 µg/mL: 75%
  inhibition at 2500 µg/mL: 93%
[3]; [20]
  inhibition at 313 µg/mL: 27%
  inhibition at 625 µg/mL: 45%
  inhibition at 1250 µg/mL: 78%
  inhibition at 2500 µg/mL: 100%
[3]; [21]
  inhibition at 313 µg/mL: 22%
  inhibition at 625 µg/mL: 47%
  inhibition at 1250 µg/mL: 80%
  inhibition at 2500 µg/mL: 100%
[3]; [18]
  inhibition at 1250 µg/mL: 78%

## NCCOP(=O)(O)OCCNC(=O)COc1ccc(Oc2ccc(Cl)cc2)cc1 [Compound (5), 2-[4-(4'-chlorophenoxy)phenoxyacetylamino]ethylphosphoryl ethanolamine]
[2]
  inhibition at 1250 µg/mL: 56%
[4]; 1st day after withdrawal
  Changes of blood pressure after drug withdrawal: -49 mmHg
[4]; [6]
  Changes of blood pressure: 0 mmHg
[4]; [7]
  Changes of blood pressure: +1 mmHg
[4]; 2nd day after withdrawal
  Changes of blood pressure after drug withdrawal: -34 mmHg
[4]; [9]
  Changes of blood pressure: -9 mmHg
[4]; 3rd day after withdrawal
  Changes of blood pressure after drug withdrawal: -26 mmHg
[4]; [10]
  Changes of blood pressure: -17 mmHg
[4]; [11]
  Changes of blood pressure: -44 mmHg
[4]; 4th day after withdrawal
  Changes of blood pressure after drug withdrawal: -21 mmHg
[4]; [12]
  Changes of blood pressure: -21 mmHg
[4]; [13]
  Changes of blood pressure: -41 mmHg
[4]; 5th day after withdrawal
  Changes of blood pressure after drug withdrawal: -15 mmHg
[4]; [14]
  Changes of blood pressure: -34 mmHg
[4]; [15]
  Changes of blood pressure: -43 mmHg
[4]; 6th day after withdrawal
  Changes of blood pressure after drug withdrawal: -7 mmHg
[4]; [16]
  Changes of blood pressure: -37 mmHg
[4]; [17]
  Changes of blood pressure: -49 mmHg
[4]; 7th day, 0 h (immediately before administration)
  Changes of blood pressure: -40 mmHg
[4]; 7th day, 5 hours after administration
  Changes of blood pressure: -49 mmHg
[3]; [19]
  inhibition at 313 µg/mL: 0%
  inhibition at 625 µg/mL: 50%
  inhibition at 1250 µg/mL: 75%
  inhibition at 2500 µg/mL: 100%
[3]; [20]
  inhibition at 313 µg/mL: 33%
  inhibition at 625 µg/mL: 50%
  inhibition at 1250 µg/mL: 80%
  inhibition at 2500 µg/mL: 93%
[3]; [21]
  inhibition at 313 µg/mL: 40%
  inhibition at 625 µg/mL: 53%
  inhibition at 1250 µg/mL: 80%
  inhibition at 2500 µg/mL: 92%
[3]; [18]
  inhibition at 1250 µg/mL: 78%
[5]
  Cholesterol-lowering activity: 48.6%
